Reference: patent US9145391B2, “Bipyridylaminopyridines as Syk inhibitors” (Merck Sharp & Dohme Corp., priority 2011, dated 2015)

Key:
[1] = molecular target: recombinant human GST-Syk (Homo sapiens (Human), UniProt P43405); assay: Homogeneous Time-Resolved Fluorescence (HTRF) assay for the recombinant human Syk enzyme; assay type: biochemical; details: recombinant human GST-Syk 5 pM, ATP 25 μM, read-out: rhSyk IC50
Method in brief: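 Recombinant GST-hSyk fusion protein kinase activity was read by HTRF. Reactions were started with biotinylated substrate peptide at 250 nM final, Mg 5 mM final and ATP 25 μM final. Potency derived from inhibition of substrate phosphorylation.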

[2] = Hydrolysis assay: hydrolysis of prodrug to parent species in human liver S9; assay type: in vitro ADME; details: human liver S9 1 mg protein/mL, prodrug 10 μM, 37° C., pH 7.4, 1 mM NADPH; for half-life at 10 μM: read-out: Half-life (min) of the conversion of the prodrug to the carboxylic acid
Procedure: Hydrolysis Assay: Analysis of Hydrolysis of Prodrug to Parent Species
The stability of 8 different prodrugs was investigated in human liver S9 microsomes. Incubations of prodrugs (10 μM) with liver S9 (1 mg protein/mL) were carried out at 37° C. in a phosphate buffer, pH 7.4, containing 1 mM NADPH. Control incubations contained BSA (1.1 mg/mL) instead of liver S9 microsomes. Aliquots were removed at 0, 5, 15, 30, 60 and 120 min, treated with 4 volumes of acetonitrile containing 2% formic acid and an internal standard, and centrifuged. The supernatants were analyzed by LC-MS/MS for prodrug disappearance and appearance of active drug. The half-life of the prodrug was calculated from the % prodrug remaining at different time points calculated from on the peak area ratio relative to t=0. The amount of active drug generated at the different time points was determined using a standard curve.

Syk kinase [3] = molecular target: T1, Syk kinase (Homo sapiens (Human), UniProt P43405); details: dosed intranasally, allergic rhinitis; cited from earlier work
Syk kinase [4] = molecular target: T1, Syk kinase; details: phase II clinical trial, allergic rhinitis; cited from earlier work

IC50 [1] [nM] | Structure (SMILES) | other results
18 | CCOC(=O)[C@H]1CC[C@H](C(C)(O)c2ccc(-c3cc(C)cc(Nc4cc(C(F)F)ccn4)n3)cn2)CC1 (single isomer, unassigned) [Example 17, Ethyl trans-4-[(1R or 1S)-1-(6-{[4-(difluoromethyl)pyridin-2-yl]amino}-4-methyl-2,3′-bipyridin-6′-yl)-1-hydroxyethyl]cyclohexanecarboxylate] | half-life at 10 μM [2]: 5.6 min
670 | CCCCCCCOC(=O)[C@H]1CC[C@H](C(C)(O)c2ccc(-c3cc(C)cc(Nc4cc(C(F)F)ccn4)n3)cn2)CC1 (single isomer, unassigned) [Example 19-10, heptyl trans-4-[(1R or 1S)-1-(6-{[4-(difluoromethyl)pyridin-2-yl]amino}-4-methyl-2,3′-bipyridin-6′-yl)-1-hydroxyethyl] cyclohexanecarboxylate] | Half-life (min) of the conversion of the prodrug to the carboxylic acid [2]: 40 min
6.4 | COCCOC(=O)[C@H]1CC[C@H](C(C)(O)c2ccc(-c3cc(C)cc(Nc4cc(C(F)F)ccn4)n3)cn2)CC1 (single isomer, unassigned) [Example 19-15, 2-methoxyethyl trans-4-[(1R or 1S)-1-(6-{[4-(difluoromethyl)pyridin-2-yl]amino}-4-methyl-2,3′-bipyridin-6′-yl)-1-hydroxyethyl] cyclohexanecarboxylate] | Half-life (min) of the conversion of the prodrug to the carboxylic acid [2]: 3.9 min
1.2 | Cc1cc(Nc2cc(C(F)F)ccn2)nc(-c2ccc(C(C)(O)[C@H]3CC[C@H](C(=O)OCC(=O)N(C)C)CC3)nc2)c1 (single isomer, unassigned) [Example 19-18, 2-(dimethylamino)-2-oxoethyl trans-4-[(1R or 1S)-1-(6-{[4-(difluoromethyl)pyridin-2-yl]amino}-4-methyl-2,3′-bipyridin-6′-yl)-1-hydroxyethyl] cyclohexanecarboxylate] | Half-life (min) of the conversion of the prodrug to the carboxylic acid [2]: 6.2 min
8.7 | Cc1cc(Nc2cc(C(F)F)ccn2)nc(-c2ccc(C(C)(O)[C@H]3CC[C@H](C(=O)OCCN4CCOCC4)CC3)nc2)c1 (single isomer, unassigned) [Example 19-19, 2-{morpholin-4-yl)ethyl trans-4-[(1R or 1S)-1-(6-{[4-(difluoromethyl)pyridin-2-yl]amino}-4-methyl-2,3′-bipyridin-6′-yl)-1-hydroxyethyl] cyclohexanecarboxylate] | Half-life (min) of the conversion of the prodrug to the carboxylic acid [2]: 15 min
14 | CCOC(=O)OCOC(=O)[C@H]1CC[C@H](C(C)(O)c2ccc(-c3cc(C)cc(Nc4cc(C(F)F)ccn4)n3)cn2)CC1 (single isomer, unassigned) [Example 20, [(Ethoxycarbonyl)oxy]methyl trans-4-[(1R or 1S)-1-(6-{[4-(difluoromethyl)pyridin-2-yl]amino}-4-methyl-2,3′-bipyridin-6′-yl)-1-hydroxyethyl]cyclohexanecarboxylate] | half-life at 10 μM [2]: 3 min
11 | CC(=O)OCOC(=O)[C@H]1CC[C@H](C(C)(O)c2ccc(-c3cc(C)cc(Nc4cc(C(F)F)ccn4)n3)cn2)CC1 (single isomer, unassigned) [Example 21, (Acetyloxy)methyl trans-4-[(1R or 1S)-1-(6-{[4-(difluoromethyl)pyridin-2-yl]amino}-4-methyl-2,3′-bipyridin-6′-yl)-1-hydroxyethyl]cyclohexanecarboxylate] | half-life at 10 μM [2]: 3.3 min
8 | COC(=O)[C@H]1CC[C@H](C(C)(O)c2ccc(-c3cc(C)cc(Nc4cc(C(F)F)ccn4)n3)cn2)CC1 (single isomer, unassigned) [Example 22, Methyl trans-4-[(1R or 1S)-1-(6-{[4-(difluoromethyl)pyridin-2-yl]amino}-4-methyl-2,3′-bipyridin-6′-yl)-1-hydroxyethyl]cyclohexanecarboxylate] | half-life at 10 μM [2]: 4.6 min
9 | Cc1cc(Nc2cc(C(F)(F)F)ccn2)nc(-c2ccc(C3(O)CCNCC3)nc2)c1 [Example 5-3] | –
17 | CC(=O)N[C@H]1CCN(c2ccc(-c3cc(C)cc(Nc4cc(C(F)(F)F)ccn4)n3)cn2)C1 [Example 6, N-[(3S)-1-(4-methyl-6-{[4-(trifluoromethyl)pyridin-2-yl]amino}-2,3′-bipyridin-6′-yl)pyrrolidin-3-yl]acetamide] | –
17 | Cc1cc(Nc2cc(C(F)(F)F)ccn2)nc(-c2ccc(N3CC[C@H](NC(=O)c4ccc5cc[nH]c5c4)C3)nc2)c1 [Example 6-1] | –
4 | Cc1cc(Nc2cc(C(F)(F)F)ccn2)nc(-c2ccc(NC3CCN(C(N)=O)CC3)nc2)c1 [Example 7, 4-(4-Methyl-6-(4-(trifluoromethyl)pyridin-2-ylamino)-2,3′-bipyridin-6′-ylamino)piperidine-1-carboxamide] | –
5 | Cc1cc(Nc2cc(C(F)(F)F)ccn2)nc(-c2ccc(N3CCCC(NC(N)=O)C3)nc2)c1 (stereo not shown) [Example 7-1] | –
9 | Cc1cc(Nc2cc(C(F)(F)F)ccn2)nc(-c2ccc(C3(O)CCN(C(=O)c4ccc5cc[nH]c5n4)CC3)nc2)c1 [Example 9, 4-(4-Methyl-6-{[4-(trifluoromethyl)pyridin-2-yl]amino}-2,3′-bipyridin-6′-yl)-1-(1H-pyrrolo[2,3-b]pyridin-6-ylcarbonyl)piperidin-4-ol] | –
30 | Cc1cc(Nc2cc(C(F)(F)F)ccn2)nc(-c2ccc(C3(O)CCN(C(=O)c4ccc5cccnc5c4)CC3)nc2)c1 [Example 9-1] | –
13 | Cc1cc(Nc2cc(C(F)(F)F)ccn2)nc(-c2ccc(C3(O)CCN(C(=O)c4ccc5cc[nH]c5c4)CC3)nc2)c1 [Example 9-2] | –
10 | Cc1cc(Nc2cc(C(F)(F)F)ccn2)nc(-c2ccc(C3(O)CCN(C(=O)c4c[nH]c5cc(C)ccc45)CC3)nc2)c1 [Example 9-3] | –
5 | Cc1cc(Nc2cc(C(F)(F)F)ccn2)nc(-c2ccc(C3(O)CCN(C(=O)c4ccc5nc(C)c(C)nc5c4)CC3)nc2)c1 [Example 9-4] | –
112 | Cc1cc(Nc2cc(C(F)(F)F)ccn2)nc(-c2ccc(C3(O)CCN(C(=O)c4[nH]c5ccccc5c4C)CC3)nc2)c1 [Example 9-5] | –
12 | Cc1cc(Nc2cc(C(F)(F)F)ccn2)nc(-c2ccc(C3(O)CCN(C(=O)c4cc(-c5ccncc5)[nH]n4)CC3)nc2)c1 [Example 9-6] | –
1 | Cc1cc(Nc2cc(C(F)(F)F)ccn2)nc(-c2ccc(C[C@H]3CC[C@@H](C(=O)O)CC3)nc2)c1 [Example 10 cis isomer, cis-4-[(4-methyl-6-{[4-(trifluoromethyl)pyridin-2-yl]amino}-2,3′-bipyridin-6′-yl)methyl]cyclohexanecarboxylic acid] | –
< 0.5 | Cc1cc(Nc2cc(C(F)(F)F)ccn2)nc(-c2ccc(C[C@H]3CC[C@H](C(=O)O)CC3)nc2)c1 [Example 10 trans isomer, trans-4-[(4-methyl-6-{[4-(trifluoromethyl)pyridin-2-yl]amino}-2,3′-bipyridin-6′-yl)methyl]cyclohexanecarboxylic acid] | –
6 | Cc1cc(Nc2cc(C(F)(F)F)ccn2)nc(-c2ccc(NC3CCN(C(=O)c4cccc5c4NC(=O)C5)CC3)nc2)c1 [Example 447] | –
– | Oc1cccc(Nc2ncc(F)c(Nc3cccc(O)c3)n2)c1 [Example R112] | PGD2 change (Syk kinase [3]): statistically significant decrease in PGD2; clinical safety (Syk kinase [3]): safe across a range of indicators; efficacy versus placebo (Syk kinase [4]): lack of efficacy versus placebo
